# Reference: publication PMC5853643, “Bombesin receptor subtype‐3‐expressing neurons regulate energy homeostasis through a novel neuronal pathway in the hypothalamus” (Brain and Behavior, 2017)
# Biological target: T1, Bombesin receptor subtype‐3 (BRS‐3) (Rattus norvegicus, UniProt Q8K418)
# T1 construct: gene Brs3
# T1 sequence (Q8K418 1-399): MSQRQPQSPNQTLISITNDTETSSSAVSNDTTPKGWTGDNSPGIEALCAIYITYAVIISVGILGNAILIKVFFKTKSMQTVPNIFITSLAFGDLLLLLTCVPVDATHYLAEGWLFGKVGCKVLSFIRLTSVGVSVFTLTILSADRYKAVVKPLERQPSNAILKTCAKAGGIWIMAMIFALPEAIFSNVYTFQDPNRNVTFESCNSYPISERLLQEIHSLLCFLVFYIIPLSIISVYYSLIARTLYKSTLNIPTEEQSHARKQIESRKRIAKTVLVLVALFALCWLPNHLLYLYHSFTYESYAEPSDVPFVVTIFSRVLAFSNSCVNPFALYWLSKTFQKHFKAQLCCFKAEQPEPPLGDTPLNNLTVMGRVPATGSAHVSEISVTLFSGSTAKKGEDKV
# Experiment: agonist-induced Ca2+ mobilization, aequorin bioluminescence assay in CHO-K1 cells overexpressing BRS-3
# Format: cell-based
row,EC50 [nM],Compound
1,100,"COc1ccc2c(c1)C(=O)N(Cc1ccccc1)C(C(=O)NC(C)(C)C)c1ccccc1-2 (racemic) [compound-A, 6‐benzyl‐N‐tert‐butyl‐9‐methoxy‐7‐oxo‐6,7‐dihydro‐5H‐dibenzo[c,e]azepine‐5‐carboxamide]"
2,130,"COc1ccc2c(c1)C(=O)N(Cc1ccccc1)C(C(=O)NC(C)(C)C)c1ccccc1-2 (racemic) [compound-C, compound‐C]"
